# In patent publication US20040235849A1, “Tetrahydroquinoxalines acting as bradykinin antagonists” (priority 2001, published 2004):
# Target: T1, human B1 receptor (Homo sapiens, UniProt P46663)
# T1 construct: expressed in transfected cells
# T1 sequence (P46663 1-353): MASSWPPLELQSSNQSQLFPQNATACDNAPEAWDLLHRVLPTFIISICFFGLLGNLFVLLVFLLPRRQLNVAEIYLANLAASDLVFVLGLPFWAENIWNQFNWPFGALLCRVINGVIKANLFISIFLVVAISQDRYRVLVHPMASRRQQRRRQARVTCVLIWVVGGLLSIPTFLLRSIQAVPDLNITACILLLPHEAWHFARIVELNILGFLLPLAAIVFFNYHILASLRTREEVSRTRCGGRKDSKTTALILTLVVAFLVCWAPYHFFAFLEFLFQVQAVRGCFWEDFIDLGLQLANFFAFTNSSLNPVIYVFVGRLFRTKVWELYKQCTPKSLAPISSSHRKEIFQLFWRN
# Test: Functional in vitro assay: B1 receptor antagonism measured via agonist-induced intracellular calcium release in recombinant cell lines
# Type: cell-based
# Conditions: stable cell lines, e.g. CHO or HEK 293, recombinantly expressing the human B1 receptor
# Text: 1. Functional in vitro Assay
# Agonists such as des-Arg9-BK and des-Arg10-kallidin activate the B1 receptor and lead, via stimulation of phospholipase C, to release of calcium ions from intracellular stores. Antagonists block the activation of the receptor by the agonists and thus also the agonist-dependent stimulation of phospholipase C and the intracellular calcium release induced thereby.
# A functional in vitro assay can be carried out with stable cell lines, e.g. CHO or HEK 293, which recombinantly express the human B1 receptor. This entails measuring the activation of the receptor by the agonist indirectly via the intracellular calcium release induced thereby (in microtiter plates with 96, 384 and 1536 wells/plate). The effect of the tested substances can be stated as IC50.
row,IC50 [nM],SMILES
1,25,O=C(CC1C(=O)Nc2ccccc2N1S(=O)(=O)c1cc(Cl)ccc1Oc1ccc(Cl)cc1)NC1CCCCCC1 (centres unmarked) [Example 170]
2,17,O=C(CC1C(=O)Nc2ccccc2N1S(=O)(=O)c1ccc(Cl)cc1Cl)NC1CCCCCC1 (centres unmarked) [Example 177]
